Laboratory results reported in patent publication US20100063085A1, “METHOD OF TREATING LEARNING IMPAIRMENT IN DOWN'S SYNDROME SUBJECTS” (University Court of The University of Dundee, priority 2008, published 2010).
Where two headings read alike, the source gives them in different places.

Legend:
Type in all cases: biochemical
SAPK4/p38d = target: T1, SAPK4/p38d (Homo sapiens, UniProt O15264); test: SAPK4/p38d 33P kinase assay; details: read-out: SAPK4/p38d activity as percentage of control without inhibitor
T1 sequence (O15264 1-365): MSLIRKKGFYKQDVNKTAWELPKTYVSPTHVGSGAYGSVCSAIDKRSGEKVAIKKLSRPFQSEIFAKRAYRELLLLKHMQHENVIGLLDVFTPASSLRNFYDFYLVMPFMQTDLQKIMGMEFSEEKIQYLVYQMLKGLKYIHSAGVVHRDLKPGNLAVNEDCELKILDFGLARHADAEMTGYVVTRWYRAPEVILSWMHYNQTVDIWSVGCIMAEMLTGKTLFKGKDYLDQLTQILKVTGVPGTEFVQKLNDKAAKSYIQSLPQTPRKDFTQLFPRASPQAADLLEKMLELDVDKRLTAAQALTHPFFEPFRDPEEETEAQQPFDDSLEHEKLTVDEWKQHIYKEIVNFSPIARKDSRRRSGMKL
Procedure: (§1) All assays (25.5 μl) were carried out at room temperature (21° C.) and were linear with respect to time and enzyme concentrations under the conditions used. Assays were performed for 30 minutes except assays for LCK and PKB which were performed for 15 minutes using Multidrop Micro reagent dispensers (Thermo Electron Corporation, Waltham, Mass. 02454, USA) in a 96-well format. The concentration of […] [γ-^33P] ATP (800 cpm/pmol) in the assays was one of three concentrations (5, 20 or 50 μM) in order to be at or below Km for ATP for the enzyme. Assays were initiated with MgATP and stopped by addition of 5 μl of 0.5M orthophosphoric acid. Assays were then harvested onto P81 filterplates using a unifilter harvester (PerkinElmer, Boston, Mass. 02118, USA), with a wash buffer of 50 mM orthophosphoric acid. Filterplates were then air dried overnight. 10 μl of Microscint O was added per well prior to counting for radioactivity.
(§2) MKK1, JNK/SAPK1c, SAPK2a/p38, SAPK2b/p38β2, SAPK3/p38γ, SAPK4/p38δ, MAPK2/ERK2, MAPKAP-K1β, MAPKAP-K2, MSK1, PRAK, PKA, PKCα, PDK1, SGK, p70S6K, GSK3β, ROCK-II, PRK2, AMPK, CHK1, CHK2, CK2, PHK, LCK, were assayed according to Davies et al., (Davies, S. P., Reddy, H., Caivano, M. and Cohen, P. Biochem. J. 351, 95-105, 2000.
(§3) CSK and CDK2/cyclinA, were assayed according to Bain et al. (Bain J, McLauchlan H, Elliott M, Cohen P. Biochem J. 371, 199-204, 2003., except that ATP concentrations were either 5, 20 or 50 micromolar so that they were at or below the Km for ATP. The ATP concentrations used were as follows, 5 μM for assays of MKK1, SAPK3, SAPK4, GSK3β, PRK2 CK2 20 μm for assays of JNK, SAPK2β, MAPKAP-K2, MSK1, PRAK, PKA, […], PDK1, SGK, p70S6K, ROCK-II, CHK1, CHK2, CSK, CDK2, and 50 μM for assays of SAPK2a, MAPK2/ERK2, AMPK, LCK, PHK and MAPKAP-K1β.

SGK = target: T2, SGK (Homo sapiens, UniProt O00141); test: SGK 33P kinase assay; details: read-out: SGK activity as percentage of control without inhibitor
T2 sequence (O00141 1-431): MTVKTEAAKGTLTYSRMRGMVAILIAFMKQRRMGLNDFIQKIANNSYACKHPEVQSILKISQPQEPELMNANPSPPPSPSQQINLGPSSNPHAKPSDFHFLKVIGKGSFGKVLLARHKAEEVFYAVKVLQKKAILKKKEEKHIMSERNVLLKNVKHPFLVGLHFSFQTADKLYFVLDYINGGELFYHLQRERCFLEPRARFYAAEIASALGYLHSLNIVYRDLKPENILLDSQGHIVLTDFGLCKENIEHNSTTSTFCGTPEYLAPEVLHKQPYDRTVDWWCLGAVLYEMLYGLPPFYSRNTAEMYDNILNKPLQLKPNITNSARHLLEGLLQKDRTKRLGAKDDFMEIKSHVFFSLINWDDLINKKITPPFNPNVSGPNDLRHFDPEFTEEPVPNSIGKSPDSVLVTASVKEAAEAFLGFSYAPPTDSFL
Procedure: as §1, §2, §3

JNK3 = JNK3 (Homo sapiens, UniProt P53779); test: JNK3 33P kinase assay; details: read-out: JNK3 activity as percentage of control without inhibitor
Procedure: as §1
The following kinases were assayed against the substrates indicated. Aurora B was assayed against the substrate peptide […] (300 μM), ERK8 and MST-2 were both assayed against MBP (0.33 mg/ml). IKKβ was assayed against the substrate peptide […] (300 μM), JNK3 was assayed against 3 μM ATF2[19-96]. MAPKAP-K3 and PKD1 were both assayed against […] (30 μM), MARK3 was assayed against CHKtide ([…]) substrate peptide (300 μM). MNK1 and MNK2 were both assayed against eIF4E protein (0.5 mg/ml). NEK7 was assayed against […] (300 μM), PIM2 was assayed against […] (300 μM), ΔPH PKBβ-S474D was assayed against Crosstide (30 μM), PLK1 was assayed against […] (300 μM). PRK2 was assayed against Long S6 peptide, […] (30 μM), RSK2 was assayed against […] (30 μM), SRC was assayed against cdc2 peptide, […], (300 μM) and SRPK1 was assayed against peptide […] (300 μM). All enzymes were diluted in 50 mM Tris/HCl pH 7.5, 0.1 mM EGTA, 1 mg/ml BSA, 0.1% β-mercaptoethanol buffer and assayed in an incubation containing 50 mM Tris/HCl pH7.5, 0.1 mM EGTA, 0.1% β-mercaptoethanol, CAMK-1 (5-20 mU) diluted in 50 mM Tris/HCl pH 7.5, 0.1 mM EGTA, 1 mg/ml BSA, 0.1% β-mercaptoethanol is assayed against substrate peptide […] in an incubation containing 50 mM Tris/HCl pH 7.5, 0.1 mM EGTA, 0.5 mM CaCl2, 0.3 μM calmodulin, 0.1% β-mereaptoethanol, 300 μM substrate peptide, 10 mM magnesium acetate and 0.05 mM [^33P-γ-ATP] (500-1000 cpm/pmole). EF2K (5-20 mU) diluted in 50 mM Hepes pH 6.6, 0.1% β-mercaptoethanol, 1 mg/ml BSA is assayed against a substrate peptide […] in an incubation containing 50 mM Hepes pH 6.6, 0.2 mM CaCl2, 0.3 μM Calmodulin, 0.05% b-mercaptoethanol, 300 μM substrate peptide, 10 mM magnesium acetate and 0.05 mM [^33P-γ-ATP] (500-1000 cpm/pmole).

JNK3, sequence (P53779 whole entry, species assumed): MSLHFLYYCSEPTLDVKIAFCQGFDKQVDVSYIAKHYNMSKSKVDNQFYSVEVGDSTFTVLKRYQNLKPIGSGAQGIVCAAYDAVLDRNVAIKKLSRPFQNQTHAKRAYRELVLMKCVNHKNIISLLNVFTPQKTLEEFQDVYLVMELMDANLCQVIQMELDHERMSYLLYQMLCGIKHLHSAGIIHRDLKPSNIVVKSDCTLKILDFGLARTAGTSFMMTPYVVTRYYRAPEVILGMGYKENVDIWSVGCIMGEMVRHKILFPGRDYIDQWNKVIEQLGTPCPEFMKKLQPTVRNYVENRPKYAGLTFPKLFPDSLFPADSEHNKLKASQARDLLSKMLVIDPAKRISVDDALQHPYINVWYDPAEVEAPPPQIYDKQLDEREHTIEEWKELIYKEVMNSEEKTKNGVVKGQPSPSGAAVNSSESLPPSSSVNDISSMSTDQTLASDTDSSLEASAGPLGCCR

SMILES	remaining activity at 1 µM (SAPK4/p38d; inhibitor 1 μM) [%]	remaining activity at 10 µM (SAPK4/p38d; inhibitor 10 μM) [%]	remaining activity at 1 µM (SGK; inhibitor 1 μM) [%]	remaining activity at 10 µM (SGK; inhibitor 10 μM) [%]	remaining activity at 1 µM (JNK3) [%]	remaining activity at 10 µM (JNK3) [%]	remaining activity at 1 µM (JNK3; inhibitor 1 μM) [%]	remaining activity at 10 µM (JNK3; inhibitor 10 μM) [%]	remaining activity at 1 µM (SAPK4/p38d) [%]	remaining activity at 10 µM (SAPK4/p38d) [%]	remaining activity at 1 µM (SGK) [%]	remaining activity at 10 µM (SGK) [%]
COc1ccc2c3c([nH]c2c1)C(C)=NCC3 [Harmaline]	76	113	14	84	87	81						
CC1=NCCc2c1[nH]c1cc(O)ccc21 [Harmalol]	101	93	62	45			92	94				
COc1ccc2c(c1)[nH]c1c(C)nccc12 [Harmine]					89	83			96	82	66	62
